Laboratory results reported in PubChem BioAssay AID248 (DTP/NCI, 2004).
Values joined by “and” are separate entries in the source; they are usually repeats but may differ in a detail not shown here. Equal entries are not always repeated. Inconclusive results and toxic doses are left out. Rule as the data show it: active = T/C of 150% or more; inactive = T/C below 125%.

Test system: L1210 leukemia ip in BDF1 mice, survival T/C
Experiment: NCI In Vivo Anticancer Drug Screen. Data for tumor model L1210 Leukemia (intraperitoneal) in B6D2F1 (BDF1) mice
Conditions: endpoint: mean survival time, higher = longer survival
Outline: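 Each compound was tested against a transplantable tumor grown in mice. The endpoint was survival, with treated animals benchmarked against vehicle controls as a simple ratio.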

[1] = dose: 100.0 mg/kg/injection, schedule: Q04DX003 (ip), vehicle: Klucel (hydroxypropylcellulose) (HPC)
[2] = dose: 100.0 mg/kg/injection, schedule: Q01DX001 (ip), vehicle: saline
[3] = dose: 200.0 mg/kg/injection, schedule: Q01DX001 (ip), vehicle: saline
[4] = dose: 400.0 mg/kg/injection, schedule: Q01DX001 (ip), vehicle: saline
[5] = dose: 50.0 mg/kg/injection, schedule: Q01DX001 (ip), vehicle: carboxymethylcellulose (CMC)
[6] = dose: 100.0 mg/kg/injection, schedule: Q01DX001 (ip), vehicle: carboxymethylcellulose (CMC)
[7] = dose: 200.0 mg/kg/injection, schedule: Q01DX001 (ip), vehicle: carboxymethylcellulose (CMC)
[8] = dose: 400.0 mg/kg/injection, schedule: Q01DX001 (ip), vehicle: carboxymethylcellulose (CMC)
[9] = dose: 100.0 mg/kg/injection, schedule: Q01DX009 (ip), vehicle: Klucel (hydroxypropylcellulose) (HPC)
[10] = dose: 200.0 mg/kg/injection, schedule: Q01DX009 (ip), vehicle: Klucel (hydroxypropylcellulose) (HPC)
[11] = dose: 200.0 mg/kg/injection, schedule: Q04DX003 (ip), vehicle: Klucel (hydroxypropylcellulose) (HPC)
[12] = dose: 400.0 mg/kg/injection, schedule: Q01DX009 (ip), vehicle: Klucel (hydroxypropylcellulose) (HPC)
[13] = dose: 400.0 mg/kg/injection, schedule: Q04DX003 (ip), vehicle: Klucel (hydroxypropylcellulose) (HPC)

Measured: T/C

CC(C)(C)C1CCC(NC(=O)C(Cl)(Cl)Cl)CC1 (stereo unspecified)
inactive: dose: 6.0 mg/kg/injection, schedule: Q01DX009 (ip), vehicle: Klucel (hydroxypropylcellulose) (HPC) 100 % of control | dose: 12.0 mg/kg/injection, schedule: Q01DX009 (ip), vehicle: Klucel (hydroxypropylcellulose) (HPC) 107 % of control | dose: 25.0 mg/kg/injection, schedule: Q01DX009 (ip), vehicle: Klucel (hydroxypropylcellulose) (HPC) 96 % of control and 105 % of control | dose: 25.0 mg/kg/injection, schedule: Q04DX003 (ip), vehicle: Klucel (hydroxypropylcellulose) (HPC) 94 % of control | dose: 50.0 mg/kg/injection, schedule: Q01DX009 (ip), vehicle: Klucel (hydroxypropylcellulose) (HPC) 86 % of control | dose: 50.0 mg/kg/injection, schedule: Q04DX003 (ip), vehicle: Klucel (hydroxypropylcellulose) (HPC) 97 % of control | [1] 96 % of control

NC(CCSC(c1ccccc1)(c1ccccc1)c1ccccc1)C(=O)O (stereo unspecified)
inactive: dose: 50.0 mg/kg/injection, schedule: Q01DX009 (ip), vehicle: saline 94 % of control and 103 % of control | dose: 100.0 mg/kg/injection, schedule: Q01DX009 (ip), vehicle: saline 95 % of control and 107 % of control | dose: 200.0 mg/kg/injection, schedule: Q01DX009 (ip), vehicle: saline 97 % of control and 106 % of control | dose: 400.0 mg/kg/injection, schedule: Q01DX009 (ip), vehicle: saline 100 % of control and 108 % of control

Oc1ccc(Cl)cc1/C=N/Nc1c2ccccc2nc2ccccc12
inactive: [2] 89 % of control | [3] 103 % of control | [4] 105 % of control

CC(=O)c1ccc(C)c([N+](=O)[O-])c1
inactive: [5] 98 % of control | [6] 91 % of control | [7] 107 % of control | [8] 91 % of control

CC(C)CC(N)C(=O)NCCCCCCNCCCCCCNC(=O)C(N)CC(C)C (stereo unspecified)
inactive: dose: 50.0 mg/kg/injection, schedule: Q01DX001 (ip), vehicle: saline 103 % of control | [2] 105 % of control | [3] 102 % of control

O=C(c1ccccc1)c1ccc(O)cc1
inactive: [9] 93 % of control | [1] 103 % of control | [10] 93 % of control | [11] 100 % of control | [12] 100 % of control | [13] 103 % of control

CCOC(=O)c1c(-c2ccc([N+](=O)[O-])cc2)c(/C=N\O)n(-c2ccccc2)c1C
inactive: dose: 100.0 mg/kg/injection, schedule: Q04DX002 (ip), vehicle: Klucel (hydroxypropylcellulose) (HPC) 87 % of control | dose: 200.0 mg/kg/injection, schedule: Q04DX002 (ip), vehicle: Klucel (hydroxypropylcellulose) (HPC) 94 % of control

CCCCCCCCCCCCCCCCCCNC(=O)N(CC)c1ccccc1
inactive: [9] 101 % of control | [1] 93 % of control | [10] 98 % of control | [11] 101 % of control | [12] 106 % of control | [13] 92 % of control

O=CN(O)CC(=O)O
inactive: dose: 62.5 mg/kg/injection, schedule: Q01DX010 (ip), vehicle: saline 95 % of control and 98 % of control | dose: 62.5 mg/kg/injection, schedule: Q01DX Z (ip), vehicle: saline 93 % of control | dose: 125.0 mg/kg/injection, schedule: Q01DX010 (ip), vehicle: saline 95 % of control | dose: 125.0 mg/kg/injection, schedule: Q01DX Z (ip), vehicle: saline 98 % of control | dose: 250.0 mg/kg/injection, schedule: Q01DX010 (ip), vehicle: saline 98 % of control and 106 % of control | dose: 250.0 mg/kg/injection, schedule: Q01DX Z (ip), vehicle: saline 92 % of control | dose: 500.0 mg/kg/injection, schedule: Q01DX010 (ip), vehicle: saline 96 % of control and 101 % of control | dose: 500.0 mg/kg/injection, schedule: Q01DX Z (ip), vehicle: saline 88 % of control | dose: 575.0 mg/kg/injection, schedule: Q02DX010 (ip), vehicle: other 101 % of control | dose: 860.0 mg/kg/injection, schedule: Q02DX010 (ip), vehicle: other 107 % of control | dose: 1300.0 mg/kg/injection, schedule: Q02DX010 (ip), vehicle: other 105 % of control | dose: 2000.0 mg/kg/injection, schedule: Q02DX010 (ip), vehicle: other 106 % of control | dose: 3000.0 mg/kg/injection, schedule: Q02DX010 (ip), vehicle: other 117 % of control

Nc1ccc(CNC(=O)COc2ccc(Cl)cc2C(=O)O)cc1
inactive: [1] 110 % of control | [11] 94 % of control | [13] 100 % of control

Cc1ccc(S(=O)(=O)CCCl)cc1
inactive: [1] 96 % of control | [11] 100 % of control

CC(C)NC=O
inactive: [2] 96 % of control | [3] 102 % of control | [4] 104 % of control

CN(C)c1ccc2oc(=O)c3ccccc3c2c1
inactive: [5] 100 % of control | [6] 92 % of control | [7] 100 % of control | [8] 94 % of control

C[C@]12C=CC(=O)C=C1CC[C@@H]1[C@@H]2[C@@H](O)C[C@@]2(C)[C@H]1CC[C@]2(O)C(=O)COC(=O)CCC(=O)O
inactive: dose: 63.0 mg/kg/injection, schedule: Q01DX015 (sc), vehicle: steriod suspending solution 106 % of control | dose: 125.0 mg/kg/injection, schedule: Q01DX015 (sc), vehicle: steriod suspending solution 106 % of control | dose: 250.0 mg/kg/injection, schedule: Q01DX015 (sc), vehicle: steriod suspending solution 96 % of control | dose: 500.0 mg/kg/injection, schedule: Q01DX015 (sc), vehicle: steriod suspending solution 108 % of control and 116 % of control

COC(=O)c1cc(C)c(C)cc1N
inactive: [2] 102 % of control | [3] 96 % of control | [4] 93 % of control

O=C(O)c1ccccc1-c1c2ccc(=O)c(O)c-2oc2c(O)c(O)ccc12
inactive: dose: 10.0 mg/kg/injection, schedule: Q04DX003 (ip), vehicle: other 99 % of control | dose: 20.0 mg/kg/injection, schedule: Q04DX003 (ip), vehicle: other 94 % of control | dose: 40.0 mg/kg/injection, schedule: Q04DX003 (ip), vehicle: other 98 % of control | dose: 50.0 mg/kg/injection, schedule: Q04DX003 (ip), vehicle: other 112 % of control | dose: 80.0 mg/kg/injection, schedule: Q04DX003 (ip), vehicle: other 89 % of control | dose: 100.0 mg/kg/injection, schedule: Q04DX003 (ip), vehicle: other 104 % of control | dose: 200.0 mg/kg/injection, schedule: Q04DX003 (ip), vehicle: other 124 % of control

c1ccc2c[n+](C[n+]3ccc4ccccc4c3)ccc2c1
inactive: dose: 100.0 mg/kg/injection, schedule: Q04DX003 (ip), vehicle: saline 103 % of control | dose: 200.0 mg/kg/injection, schedule: Q04DX003 (ip), vehicle: saline 105 % of control
